{"source": "patent US9109001B2", "about": "“3′,5′-cyclic phosphoramidate prodrugs for HCV infection” (priority 2012, dated 2015)", "key": {"[1]": {"test": "Cytotoxicity evaluation (CellTiter-Blue Cell Viability Assay)", "format": "cell-based, human", "conditions": "human, Zluc cells, read-out: HCV Replicon CC50"}, "[2]": {"test": "Stability in human intestinal microsomes", "format": "in vitro ADME", "conditions": "10 μM, 1.0 mg/mL protein, NADPH, 60 min; percent unchanged", "description": "(§1) Stability in Liver and Intestinal Subcellular Fractions: Stability of test compounds were determined in subcellular fractions (microsomes and S9) of human liver and intestine in duplicate for each matrix. Pooled liver and intestinal microsomal, intestinal and liver S9 proteins (1.0 mg/mL), suspended in incubation buffer (100 mM potassium phosphate, pH 7.4, 5 mM MgCl2, and 0.1 mM EDTA), were preincubated for 5 min at 37° C. with 10 μM of a test compound from a 10 mM stock solution in DMSO (final DMSO concentration was 0.1%); the reaction was initiated by the addition of NADPH (3 mM final concentration). At specific times (0 and 60 min), 0.1 mL samples were taken and the reaction terminated by the addition of 4 volumes of stop solution (acetonitrile with 500 ng/mL carbutamide as an internal standard). The samples were vortexed for 30 sec and then centrifuged at 16,000 g for 10 min. 100 μL of supernatants were transferred to 96 deep-well plates preloaded with 100 μL distilled water and analyzed after mixing by LC-MS/MS. The MS peak area ratio of the test compound versus the internal standard was calculated and percent unchanged test compound over 60 minutes was calculated using this ratio."}, "[3]": {"test": "Stability in human liver S9 fraction", "format": "in vitro ADME", "conditions": "10 μM, 1.0 mg/mL protein, NADPH, 60 min; percent unchanged", "description": "as §1"}, "Huh-7 cells": {"test_system": "Huh-7 cells", "test": "Release of active metabolite in Huh-7 cells", "format": "in vitro ADME, human", "conditions": "10 μM test compound", "description": "Assay for the Release of Active Metabolite in Huh-7 Cells. Huh-7 cells were plated in 1 mL culture medium (DMEM, containing glucose, L-glutamine and sodium pyruvate, 10% FBS, 100 IU/mL penicillin, 100 μg/mL streptomycin, 2 mM GlutaMAX, 1% MEM non-essential amino acids) at the concentration 0.8, 0.4 and 0.2 million cells per well on 6 well plates for 24, 48 and 72 hr treatment, respectively. Plated cells were incubated overnight at 37° C. in an incubator.\nThe following morning test compound was diluted to 20 μM from a stock solution in DMSO in fresh culture medium pre-warmed to 37° C. and 1 mL of the solution/well was added to cells. A final medium volume per well was 2.0 mL, test compound concentration in well was 10 μM and final DMSO concentration was 0.1%.\nAfter 24, 48 or 72 hr, the medium was carefully removed and cell monolayers were washed twice with 2 mL ice-cold PBS per well. Following the last wash, all PBS was carefully removed and 1.0 mL of extraction solution (ice-cold 70% methanol) added. The plate was tightly covered with Parafilm, plastic plate cover and Parafilm again and an intracellular content was extracted at −20° C. for 24 hr.\nAfter 24 hr extracts were transferred into polypropylene microfuge tubes and dry on a refrigerated centrivap concentrator. Dry residues were reconstituted in 250 μL of HPLC-grade water and centrifuged at 16,000×g for 10 min. Aliquots (100 μL each) of the supernatants were transferred into a 96 well plate and internal standard (4 ng/mL final concentration) was added as the internal standard (IS) for LC-MS/MS analysis."}, "fresh human hepatocytes": {"test_system": "fresh human hepatocytes", "test": "Release of active metabolite in fresh human hepatocytes", "format": "in vitro ADME", "conditions": "10 μM", "description": "(§2) Assay for the Release of Active Metabolite in Primary Hepatocytes: Plates of fresh human and mouse hepatocytes were obtained on ice. The medium was removed and replaced with hepatocyte culture medium (William's E supplemented with penicillin-streptomycin, 1% L-glutamine, 1% insulin-transferrin-selenium and 0.1 μM Dexamethasone (Invitrogen) or with Invitro GRO HI medium complemented with Torpedo antibiotics (Celsis)). Cells were left overnight in an incubator at 37° C. to acclimatize to culture and the medium.\n(§3) Hepatocyte incubations were conducted at a final volume of 0.5 mL hepatocyte culture medium/well (0.8 million cells/well for human and 0.5 million cells/well for mouse; 12 well plate no overlay, collagen coat). Culture medium from overnight incubation of cells was removed and replaced with fresh medium, pre-warmed to 37° C., containing 10 μM of test compound from a stock solution in DMSO (final DMSO concentration was 0.1%). At each specific time point, incubation medium was removed and cell monolayers were carefully washed two times with ice-cold PBS. Following the last wash, all PBS was carefully removed and 1.0 mL of extraction solution (ice-cold 70% methanol/30% water) added. Cells were scraped off and suspended in the extraction solution, transferred to 2 mL polypropylene microfuge tubes and intracellular contents extracted overnight at −20° C.\n(§4) After the overnight treatment the cellular extracts were prepared by centrifugation at 16,000×g for 10 min to remove cellular debris. The remaining sample was then dried using a refrigerated centrivap concentrator. Dry extracts were reconstituted in 1000 μL of HPLC-grade water and centrifuged at 16,000×g for 10 min. Aliquots (100 μL each) of the supernatant were transferred into a 96 well plate and internal standard (4 ng/mL final concentration) was added as the internal standard (IS) for LC-MS/MS analysis.\n(§5) The incubation time points were 6, 24 and 48 hours for human hepatocytes and 1, 4, 8, 12 and 24 hours for mouse hepatocytes."}, "mouse hepatocytes": {"test_system": "mouse hepatocytes", "test": "Release of active metabolite in mouse hepatocytes", "format": "in vitro ADME", "conditions": "10 μM", "description": "as §2, §3, §4, §5"}, "Zluc cells": {"test_system": "Zluc cells", "test": "Cytotoxicity evaluation (CellTiter-Blue Cell Viability Assay)", "format": "cell-based, human", "conditions": "read-out: HCV Replicon CC50"}}}
{"smiles": "CCOc1nc(N)nc2c1ncn2[C@@H]1O[C@@H]2COP(=O)(N[C@@H](C)C(=O)OC(C)C)O[C@H]2[C@@]1(C)F", "note": "(single isomer, unassigned) [Compound 1 Diastereomer 1]", "values": [{"measurement": "CC50", "setting": "[1]", "value": "> 50", "unit": "µM"}, {"measurement": "Stability HIM (1 hr)", "setting": "[2]", "value": 70, "unit": "%"}, {"measurement": "Stability HLS9 (1 hr)", "setting": "[3]", "value": 51, "unit": "%"}, {"measurement": "Huh-7 TP Cmax (pmol/mill cells)", "setting": "Huh-7 cells", "value": 283, "unit": "pmol/mill cells"}, {"measurement": "FHH TP AUC (pmol · hr/mill cells)", "setting": "fresh human hepatocytes", "value": 9842, "unit": "pmol · hr/mill cells"}, {"measurement": "FHH TP Cmax (pmol/mill cells)", "setting": "fresh human hepatocytes", "value": 687, "unit": "pmol/mill cells"}, {"measurement": "FHH TP (24 hr)", "setting": "fresh human hepatocytes; 24 hr", "value": "BLD^a"}, {"measurement": "MsH AUC (pmol · hr/mill cells)", "setting": "mouse hepatocytes", "value": 4700, "unit": "pmol · hr/mill cells"}, {"measurement": "MsH Cmax (pmol/mill cells)", "setting": "mouse hepatocytes", "value": 2296, "unit": "pmol/mill cells"}]}
{"smiles": "CCOc1nc(N)nc2c1ncn2[C@@H]1O[C@@H]2COP(=O)(N[C@@H](C)C(=O)OC(C)C)O[C@H]2[C@@]1(C)F", "note": "(single isomer, unassigned) [Compound 1 Diastereomer 2]", "values": [{"measurement": "CC50", "setting": "Zluc cells", "value": "> 50", "unit": "µM"}, {"measurement": "Stability HIM (1 hr)", "setting": "[2]", "value": 98, "unit": "%"}, {"measurement": "Stability HLS9 (1 hr)", "setting": "[3]", "value": 66, "unit": "%"}, {"measurement": "FHH TP AUC (pmol · hr/mill cells)", "setting": "fresh human hepatocytes", "value": 5774, "unit": "pmol · hr/mill cells"}, {"measurement": "FHH TP Cmax (pmol/mill cells)", "setting": "fresh human hepatocytes", "value": 309, "unit": "pmol/mill cells"}, {"measurement": "FHH TP (48 hr)", "setting": "fresh human hepatocytes; 48 hr", "value": "BLD^a"}, {"measurement": "MsH AUC (pmol · hr/mill cells)", "setting": "mouse hepatocytes", "value": 1451, "unit": "pmol · hr/mill cells"}, {"measurement": "MsH Cmax (pmol/mill cells)", "setting": "mouse hepatocytes", "value": 884, "unit": "pmol/mill cells"}]}
